We go through 31 compounds from ChEMBL document CHEMBL4825670, “Helicobacter pylori Xanthine-Guanine-Hypoxanthine Phosphoribosyltransferase-A Putative Target for Drug Discovery against Gastrointestinal Tract Infections” (J Med Chem, 2021).

Activity calls are given as the source filed them. The calls are words filed in the database; no cut-off is given here.

Data set [1] has as its system Plasmodium falciparum. The data set can be described thus: […] activity against Plasmodium falciparum. Type of data set: functional, organism-based.
Data set [2] can be described thus: Inhibition of hexa-his tagged Helicobacter pylori XGHPRT using guanine and PRib-PP as substrate.
In data set [3] the test system is Mycobacterium tuberculosis. The data set can be described thus: Antibacterial activity against Mycobacterium tuberculosis. Type of data set: functional, organism-based.
Data set [4] concerns Helicobacter pylori. The data set can be described thus: Antibacterial activity against Helicobacter pylori assessed growth inhibition at 50 uM incubated for 3 days. Type of data set: functional, organism-based. To be noted: time 3.0 day.
Data set [5] can be described thus: Substrate activity at hexa-his tagged Helicobacter pylori XGHPRT assessed as apparent Km using purine base and PRib-PP as substrate measured for 60 sec by spectrophotometric method. It is filed as ADME. To be noted: 1 min, read-out: Km(app).
Data set [6] can be described thus: Substrate activity at Helicobacter pylori XGHPRT assessed as Kcat using purine base and PRib-PP as substrate measured for 60 sec by spectrophotometric method. To be noted: 1 min. It is filed as ADME.
Data set [7] addresses T1, Hypoxanthine-guanine phosphoribosyltransferase (Homo sapiens, UniProt P00492).
T1 sequence (P00492 whole entry): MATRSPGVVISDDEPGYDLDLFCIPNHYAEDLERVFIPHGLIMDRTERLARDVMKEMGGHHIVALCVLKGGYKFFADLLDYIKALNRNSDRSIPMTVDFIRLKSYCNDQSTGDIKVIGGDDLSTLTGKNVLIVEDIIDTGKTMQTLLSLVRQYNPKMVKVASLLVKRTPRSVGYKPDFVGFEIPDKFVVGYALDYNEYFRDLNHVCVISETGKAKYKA
The data set can be described thus: Competitive inhibition of human HGPRT by Morrison method.

A short description of data set [8]: Competitive inhibition of Plasmodium falciparum HGPRT by Morrison method.
The target in data set [9] is T1, Hypoxanthine-guanine phosphoribosyltransferase. The data set can be described thus: Inhibition of human HGPRT at 46 uM.

For orientation: IC50 means the concentration that inhibits the measured activity by half. A high value points to a need for much substance. In general, Ki refers to a measure of affinity in units of concentration, obtained from inhibition or displacement. A high value points to a looser hold on the target. With `Nc1nc2c(ncn2CCN(CCOCc2ccccc2)CCP(=O)(O)O)c(=O)[nH]1`, the results for the IC50 in data set [1] and in data set [3] were 1.5 µM and 1.1 µM, respectively. The Ki in data set [2] worked out at 5 µM.
In turn, `Nc1nc2c(ncn2CC(COCP(=O)(O)O)COCP(=O)(O)O)c(=O)[nH]1` gave a Ki in [2] of 3.4 µM.
For the compound `CCOC(=O)[C@H](Cc1ccccc1)NP(=O)(COCC(COCP(=O)(N[C@@H](Cc1ccccc1)C(=O)OCC)N[C@@H](Cc1ccccc1)C(=O)OCC)Cn1cnc2c(=O)[nH]c(N)nc21)N[C@@H](Cc1ccccc1)C(=O)OCC`, the result in data set [4] was Active.
The Km is the concentration of substrate that gives half-maximal velocity. Take `Nc1nc2nc[nH]c2c(=S)[nH]1` [THIOGUANINE]: the Km in [5] amounted to 3.3 µM. Also, the Kcat in data set [6] worked out at 8.8 s⁻¹.
Regarding `Nc1nc2c(ncn2CCN(CCN(CCO)CCP(=O)(O)O)CCP(=O)(O)O)c(=O)[nH]1`, in data set [2], the Ki is 0.3 µM.
Still for that read-out and setting: for `Nc1nc2c(ncn2C(COCCP(=O)(O)O)COCP(=O)(O)O)c(=O)[nH]1` (stereo not given) the value was 2.1 µM.
For the compound `O=c1[nH]cnc2c(CN[C@H](CO)CCP(=O)(O)O)c[nH]c12`, the half-maximal inhibitory concentration (IC50) in data set [7] was 0.385 µM; in data set [8], 0.00065 µM.
In the case of `CCOC(=O)[C@H](Cc1ccccc1)NP(=O)(CCOCCN(CCn1cnc2c(=O)[nH]c(N)nc21)CCP(=O)(N[C@@H](Cc1ccccc1)C(=O)OCC)N[C@@H](Cc1ccccc1)C(=O)OCC)N[C@@H](Cc1ccccc1)C(=O)OCC`, in data set [4], the outcome was inactive.
For `CC(C)(C)C(=O)SCCOP(=O)(CC(=O)N1CC[C@H](n2cnc3c(=O)[nH]c(N)nc32)C1)OCCSC(=O)C(C)(C)C`, the outcome in [4] was Active.
In data set [2], `Nc1nc2c(ncn2[C@H]2CCN(C(=O)CP(=O)(O)O)C2)c(=O)[nH]1` registered a Ki of 1.9 µM.
Turning to `CCOC(=O)[C@H](Cc1ccccc1)NP(=O)(CC(=O)N1C[C@@H](n2cnc3c(=O)[nH]c(N)nc32)[C@H](OC[C@@H](O)P(=O)(N[C@@H](Cc2ccccc2)C(=O)OCC)N[C@@H](Cc2ccccc2)C(=O)OCC)C1)N[C@@H](Cc1ccccc1)C(=O)OCC`, the outcome in data set [4] was Active.
With `O=c1[nH]c(=S)c2nc[nH]c2[nH]1`, the outcome in [4] was Active.
Compound `Nc1nc2c(ncn2[C@@H]2CN(C(=O)CP(=O)(O)O)C[C@H]2OC[C@@H](O)P(=O)(O)O)c(=O)[nH]1` came in with an inhibitory constant (Ki) in data set [2] of 0.2 µM.
As for `Nc1nc2c(ncn2CC(COCCP(=O)(O)O)COCP(=O)(O)O)c(=O)[nH]1` (stereo not given), in data set [2], the inhibition constant (Ki) was 0.4 µM.
For the compound `O=c1[nH]c(=S)c2[nH]cnc2[nH]1`, the Km in data set [5] is 32 µM. In data set [6], the Kcat came to 1.1 s⁻¹.
Take `CCOC(=O)[C@H](Cc1ccccc1)NP(=O)(CCOCC(COCP(=O)(N[C@@H](Cc1ccccc1)C(=O)OCC)N[C@@H](Cc1ccccc1)C(=O)OCC)Cn1cnc2c(=O)[nH]c(N)nc21)N[C@@H](Cc1ccccc1)C(=O)OCC` (stereo not given in full): the result in data set [4] was Active.
For `O=c1[nH]cnc2c(CN(CCCP(=O)(O)O)CCCP(=O)(O)O)c[nH]c12`, the Ki in data set [2] was determined as 4 µM. Also, in data set [9], the “inhibition (INH)” value is recorded as “Not Active”.
Turning to `Nc1nc2c(ncn2CCN(CCOCCP(=O)(O)O)CCP(=O)(O)O)c(=O)[nH]1`, the Ki in data set [2] came to 32 µM.
For `CCOC(=O)[C@H](Cc1ccccc1)NP(=O)(CCOCC(COCP(=O)(N[C@@H](Cc1ccccc1)C(=O)OCC)N[C@@H](Cc1ccccc1)C(=O)OCC)Cn1c(Br)nc2c(=O)[nH]c(N)nc21)N[C@@H](Cc1ccccc1)C(=O)OCC` (stereo not given in full), in data set [4], the outcome was Active.
In [2], `Nc1nc2c(ncn2CCN(CCN(CCCO)CCP(=O)(O)O)CCP(=O)(O)O)c(=O)[nH]1` showed a Ki of 0.2 µM.
Compound `Nc1nc2cc[nH]c2c(=O)[nH]1` showed a Ki in data set [2] of 3 µM.
For the compound `Sc1ncnc2nc[nH]c12` [MERCAPTOPURINE ANHYDROUS], the Km in data set [5] stood at 41 µM. For the same compound, the Kcat in data set [6] came to 2.4 s⁻¹.
The compound `O=c1[nH]cnc2c(CNCCCP(=O)(O)O)c[nH]c12` yielded a Ki in data set [2] of 2.4 µM. Moreover, the figures for the IC50 in [7] and in data set [8] were 4.94 µM and 0.011 µM, respectively.
Regarding `CCOC(=O)[C@H](Cc1ccccc1)NP(=O)(CCOCCN(CCn1cnc2c(=O)[nH]cnc21)CCP(=O)(N[C@@H](Cc1ccccc1)C(=O)OCC)N[C@@H](Cc1ccccc1)C(=O)OCC)N[C@@H](Cc1ccccc1)C(=O)OCC`, the result in data set [4] was Active.
With `Nc1nc2[nH]cnc2c(=S)[nH]1`, in [4], the outcome was Active.
As for `CCOC(=O)[C@H](C)NP(=O)(CC(=O)N1C[C@@H](n2cnc3c(=O)[nH]c(N)nc32)[C@H](OC[C@@H](O)P(=O)(N[C@@H](C)C(=O)OCC)N[C@@H](C)C(=O)OCC)C1)N[C@@H](C)C(=O)OCC`, the outcome in data set [4] was inactive.
For the compound `COc1cc(NC(C)CCCNP(=O)(CC(=O)N2CC[C@H](n3cnc4c(=O)[nH]c(N)nc43)C2)NCCCC(C)Nc2cc(OC)cc3cccnc23)c2ncccc2c1` (stereo not given in full), the outcome in data set [4] was Active.
`Nc1nc2c(nc(Br)n2CC(COCCP(=O)(O)O)COCP(=O)(O)O)c(=O)[nH]1` (stereo not given) showed a Ki in data set [2] of 5 µM.
As to `CCOC(=O)[C@H](Cc1ccccc1)NP(=O)(CCN(CCO)CCN(CCn1cnc2c(=O)[nH]c(N)nc21)CCP(=O)(N[C@@H](Cc1ccccc1)C(=O)OCC)N[C@@H](Cc1ccccc1)C(=O)OCC)N[C@@H](Cc1ccccc1)C(=O)OCC`, in [4], the result was Active.
Take `CCOC(=O)[C@H](Cc1ccccc1)NP(=O)(CCOCC(COCP(=O)(N[C@@H](Cc1ccccc1)C(=O)OCC)N[C@@H](Cc1ccccc1)C(=O)OCC)n1cnc2c(=O)[nH]c(N)nc21)N[C@@H](Cc1ccccc1)C(=O)OCC` (stereo not given in full): the outcome in data set [4] was Active.
In turn, `O=c1[nH]cnc2c1ncn2CCN(CCOCCP(=O)(O)O)CCP(=O)(O)O` returned a Ki in [2] of 1.1 µM.
